Assay [1] concerns the target T1, human MetAP2 enzyme (Homo sapiens, UniProt P50579). The assay is described as follows: MetAP2 enzyme assay, enzyme complexed with cobalt ions. The following applies: MetAP2 Co pIC50, MetAP2 enzyme complexed with cobalt ions; Met-AMC substrate at Km.
The target in assay [2] is T1, human MetAP2 enzyme. The assay is described as follows: MetAP2 enzyme assay, enzyme complexed with manganese ions. The following applies: MetAP2 Mn pIC50, MetAP2 enzyme complexed with manganese ions; Met-AMC substrate at Km.
Method: DNA encoding the full-length sequence of human MetAP2 enzyme is amplified by PCR and cloned into a pFastBac expression vector (Invitrogen). Recombinant baculovirus incorporating the MetAP2 construct is generated by transposition using the Bac-to-Bac system (Invitrogen). The expression of recombinant protein is carried out by infection of Spodoptera frugiperda Sf9 cells (Invitrogen) in 5 L Wave Bioreactors (Wave Biotech). Recombinant protein is isolated from cellular extracts by binding to an SP Hitrap Fast Flow or SP Sepharose (Sigma) column, and the protein is eluted using a NaCl gradient. Partially purified extracts of MetAP2 are further purified by an AKTA FPLC over a Superdex-200 column (GE). The purity of MetAP2 protein is determined on denaturing SDS-PAGE gel.
The results for each well are expressed as percent inhibition and calculated using the equation:

pIC50: −log10 of the molar value.

T1 sequence (P50579 whole entry): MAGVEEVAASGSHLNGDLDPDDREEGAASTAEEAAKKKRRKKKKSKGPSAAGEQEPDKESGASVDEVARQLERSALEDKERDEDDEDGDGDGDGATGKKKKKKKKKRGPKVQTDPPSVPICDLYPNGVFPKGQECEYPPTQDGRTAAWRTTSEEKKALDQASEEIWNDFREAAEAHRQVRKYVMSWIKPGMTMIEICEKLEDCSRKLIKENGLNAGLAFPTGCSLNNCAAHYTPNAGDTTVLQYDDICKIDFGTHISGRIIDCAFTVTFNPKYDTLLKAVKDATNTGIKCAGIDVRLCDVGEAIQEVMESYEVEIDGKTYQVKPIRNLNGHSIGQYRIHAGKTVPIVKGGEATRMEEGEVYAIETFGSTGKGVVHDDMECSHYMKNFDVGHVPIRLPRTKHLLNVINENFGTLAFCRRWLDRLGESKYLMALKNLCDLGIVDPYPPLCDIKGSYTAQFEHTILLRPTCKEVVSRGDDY

As to `Cn1cc(-c2cc(C(F)(F)F)cc3[nH]ncc23)c(=O)n(CCN2CCOCC2)c1=O` [Example 313, 1-methyl-3-(2-morpholinoethyl)-5-(6-(trifluoromethyl)-1H-indazol-4-yl)pyrimidine-2,4(1H,3H)-dione], the pIC50 is 5.80 on human MetAP2 enzyme [1] and 7.60 on human MetAP2 enzyme [2].
As to `COc1ccc(CC(N)=O)cc1-c1cc(C(F)(F)F)cc2[nH]ncc12` [Example 350, 2-(4-methoxy-3-(6-(trifluoromethyl)-1H-indazol-4-yl)phenyl)acetamide], the figures for the pIC50 on human MetAP2 enzyme [1] and on human MetAP2 enzyme [2] were 7.50 and 8.10, respectively.
On the same counts, the results for `C[C@@H](O)CNC(=O)c1cc(-c2cc(C(F)(F)F)cc3[nH]ncc23)c(=O)n(C)c1` [Example 358, (R)—N-(2-hydroxypropyl)-1-methyl-6-oxo-5-(6-(trifluoromethyl)-1H-indazol-4-yl)-1,6-dihydropyridine-3-carboxamide] are 6.30 and 8.00.
Take `NS(=O)(=O)c1cccc(-c2cc(C(F)(F)F)cc3[nH]ncc23)c1` [Example 329, 3-(6-(trifluoromethyl)-1H-indazol-4-yl)benzenesulfonamide]: the pIC50 is 7.40 on human MetAP2 enzyme [1] and 7.80 against human MetAP2 enzyme [2].
On the same counts, the results for `FC(F)(F)c1cc(-c2ccc(-c3ccn[nH]3)cc2)c2cn[nH]c2c1` [Example 62, 4-(4-(1H-pyrazol-5-yl)phenyl)-6-(trifluoromethyl)-1H-indazole] are 7.00 and 7.90.
For `CC(C)Oc1ncccc1-c1cc(C(F)(F)F)cc2[nH]ncc12` [Example 143, 4-(2-isopropoxypyridin-3-yl)-6-(trifluoromethyl)-1H-indazole], in that order: 7.20 and 7.80.
On the same counts, the results for `CNC(=O)Cn1nc(C)c(-c2cc(C(F)(F)F)cc3[nH]ncc23)c1C` [Example 367, 2-(3,5-dimethyl-4-(6-(trifluoromethyl)-1H-indazol-4-yl)-1H-pyrazol-1-yl)-N-methylacetamide] are 7.30 and 7.80.
`CNC(=O)c1ncncc1-c1cc(C(F)(F)F)cc2[nH]ncc12` [Example 254, N-methyl-5-(6-(trifluoromethyl)-1H-indazol-4-yl)pyrimidine-4-carboxamide]: the pIC50 was 6.10 against human MetAP2 enzyme [1] and 7.50 at human MetAP2 enzyme [2].
For `Cc1n[nH]cc1-c1cc(C(F)(F)F)cc2[nH]ncc12` [Example 22, 4-(3-methyl-1H-pyrazol-4-yl)-6-(trifluoromethyl)-1H-indazole], in that order: 7.40 and 8.30.
For `CCn1ncc(-c2cc(C(F)(F)F)cc3[nH]ncc23)c1C` [Example 175, 4-(1-ethyl-5-methyl-1H-pyrazol-4-yl)-6-(trifluoromethyl)-1H-indazole], in that order: 7.40 and 8.00.
As to `Cc1nn(C)c(C)c1-c1cc(C(F)(F)F)cc2[nH]ncc12` [Example 164, 6-(trifluoromethyl)-4-(1,3,5-trimethyl-1H-pyrazol-4-yl)-1H-indazole], the pIC50 against human MetAP2 enzyme [1] was 7.80; at human MetAP2 enzyme [2], 8.40.
Turning to `Cc1cc(=O)n(Cc2ccccn2)cc1-c1cc(C(F)(F)F)cc2[nH]ncc12` [Example 406, 4-methyl-1-(pyridin-2-ylmethyl)-5-(6-(trifluoromethyl)-1H-indazol-4-yl)pyridin-2(1H)-one], the pIC50 against human MetAP2 enzyme [1] is 7.10; at human MetAP2 enzyme [2], 7.80.
On the same counts, the results for `FC(F)(F)c1cc(-c2cnn(Cc3ccncc3)c2)c2cn[nH]c2c1` [Example 43, 4-(1-(pyridin-4-ylmethyl)-1H-pyrazol-4-yl)-6-(trifluoromethyl)-1H-indazole] are 7.10 and 8.20.
For `CN1CCN(C(=O)c2cc(-c3cc(C(F)(F)F)cc4[nH]ncc34)cnc2F)CC1` [Example 289, (2-fluoro-5-(6-(trifluoromethyl)-1H-indazol-4-yl)pyridin-3-yl)(4-methylpiperazin-1-yl)methanone], in that order: 7.00 and 8.20.
For `Cn1cc(-c2cc(C(F)(F)F)cc3[nH]ncc23)c(=O)n(CC#N)c1=O` [Example 312, 2-(3-methyl-2,6-dioxo-5-(6-(trifluoromethyl)-1H-indazol-4-yl)-2,3-dihydropyrimidin-1(6H)-yl)acetonitrile], in that order: 6.00 and 7.60.
`OCc1cccc(-c2cc(C(F)(F)F)cc3[nH]ncc23)c1` [Example 8, (3-(6-(trifluoromethyl)-1H-indazol-4-yl)phenyl)methanol]: the pIC50 is 7.40 on human MetAP2 enzyme [1] and 8.50 on human MetAP2 enzyme [2].
For `N#CCNC(=O)c1c[nH]c(=O)c(-c2cc(C(F)(F)F)cc3[nH]ncc23)c1` [Example 333, N-(cyanomethyl)-6-oxo-5-(6-(trifluoromethyl)-1H-indazol-4-yl)-1,6-dihydropyridine-3-carboxamide], in that order: 6.60 and 7.90.
For `FC(F)(F)c1cc(-c2cnn(Cc3cccnc3)c2)c2cn[nH]c2c1` [Example 96, 4-(1-(pyridin-3-ylmethyl)-1H-pyrazol-4-yl)-6-(trifluoromethyl)-1H-indazole], in that order: 7.40 and 8.30.
For `COC(=O)c1c[nH]c(=O)c(-c2cc(C(F)(F)F)cc3[nH]ncc23)c1` [Example 265, methyl 6-oxo-5-(6-(trifluoromethyl)-1H-indazol-4-yl)-1,6-dihydropyridine-3-carboxylate], in that order: 7.00 and 8.00.
As for `Nc1ncc(F)cc1-c1cc(C(F)(F)F)cc2[nH]ncc12` [Example 194, 5-fluoro-3-(6-(trifluoromethyl)-1H-indazol-4-yl)pyridin-2-amine], the pIC50 was 6.80 against human MetAP2 enzyme [1] and 8.00 against human MetAP2 enzyme [2].
For `N#Cc1cc(F)ccc1-c1cc(C(F)(F)F)cc2[nH]ncc12` [Example 75, 5-fluoro-2-(6-(trifluoromethyl)-1H-indazol-4-yl)benzonitrile], in that order: 6.80 and 8.10.
For `Cc1nn2c(=O)[nH]ncc2c1-c1cc(C(F)(F)F)cc2[nH]ncc12` [Example 222, 2-methyl-3-(6-(trifluoromethyl)-1H-indazol-4-yl)pyrazolo[1,5-d][1,2,4]triazin-7(6H)-one], the pIC50 is 6.60 against human MetAP2 enzyme [1] and 7.80 against human MetAP2 enzyme [2].
On the same counts, the results for `CCN(CC)C(=O)c1cccc(-c2cc(C(F)(F)F)cc3[nH]ncc23)c1` [Example 32, N,N-diethyl-3-(6-(trifluoromethyl)-1H-indazol-4-yl)benzamide] are 7.40 and 7.70.
For `Cc1nc(C(N)=O)ccc1-c1cc(C(F)(F)F)cc2[nH]ncc12` [Example 379, 6-methyl-5-(6-(trifluoromethyl)-1H-indazol-4-yl)picolinamide], in that order: 7.40 and 8.20.
For `NC(=O)c1ccc2ncc(-c3cc(C(F)(F)F)cc4[nH]ncc34)n2n1` [Example 276, 3-(6-(trifluoromethyl)-1H-indazol-4-yl)imidazo[1,2-b]pyridazine-6-carboxamide], in that order: 6.40 and 7.40.
As to `FC(F)(F)c1cc(-c2cnc(-n3ccnc3)nc2)c2cn[nH]c2c1` [Example 217, 4-(2-(1H-imidazol-1-yl)pyrimidin-5-yl)-6-(trifluoromethyl)-1H-indazole], the pIC50 at human MetAP2 enzyme [1] is 6.80; at human MetAP2 enzyme [2] it was 8.00.

For the origin of these results see patent publication US9434743B2, “Indazole derivatives” (TAKEDA PHARMACEUTICAL COMPANY LIMITED, priority 2012, dated 2016).
